From patent publication US20060138687A1, “Method of forming particles” (Ferro Corporation, priority 2003, published 2006)

Assay: Scanning Electron Microscopy (SEM) analysis of collected particles
Format: physicochemical
Conditions: SEM micrograph; particles made by third embodiment (droplets frozen on contact with CO2/ethanol/water extracting fluid at −23° C., solid-liquid extraction)
Description: The collected particles were analyzed using Scanning Electron Microscopy (SEM). From FIG. 11 it is clear that the GF particles are in the form of non-agglomerated crystals, having an orthorhombic shape. The mean size of the substantially uniform particles is around 5-10 μm.
Analysis of the porous lactose particles was carried out in the same manner as described in Example 1. FIG. 12 is an SEM micrograph of the lactose particles. […] If desired, these lactose nanocrystals can be obtained simply by crumbling the large porous lactose spheres.

OC[C@H]1O[C@@H](O[C@H]2[C@H](O)[C@@H](O)C(O)O[C@@H]2CO)[C@H](O)[C@@H](O)[C@H]1O (some centres unmarked) [lactose, Lactose]
mean size of the particles: 20-30 μm

COC1=CC(=O)C[C@@H](C)[C@]12Oc1c(Cl)c(OC)cc(OC)c1C2=O [GF, Griseofulvin]
mean size of the particles: 5-10 μm
